In US9181218B2, “Compounds for improved stem cell differentiation into hepatocytes” (Hoffmann-La Roche Inc., priority 2013, dated 2015):

Tested on: HBV
Assay: Infection of iCell Hepatocytes with HBV
Type: cell-based, hepatitis B virus (HBV)
Method: Two hundred microliters of HBV-containing serum was applied onto a 10-50% Optiprep gradient in SW41 tubes. Samples were centrifuged at 100,000×g for 2 hr at 4 C. Five hundred microliters fractions were collected from the top; each fraction was analyzed for HBsAg (ELISA) and HBV DNA (TaqMan PCR). Fractions containing virus were stored at −80 C.
Fresh iCell® Hepatocytes (day 20-23) were plated and cultured according to iCell Hepatocytes Dissociation and Plating User's Guide at 60 k cells per well in 96 well BIO Collagen IV coated plates (BD Cat#354429) 4 Hours post plating Medium C was removed and replaced with a 1:50 Matrigel (Cat#354227) overlay in Medium D. Twenty four hours post plating, cells were treated with 1 uM of the compound of example 1 in Medium D containing 1% DMSO. Media containing fresh compound was replenished 2 days later. At day 4 post plating, cells were infected with HBV at MOI (multiplicity of infection) of 10. Briefly, purified virus was diluted in medium D containing the compound of example 1 and incubated with cells for 4-6 hr or overnight. After removal of virus inoculum, fresh media containing 1 uM of the compound of example 1 was added and cells were incubated for 14 days with a medium change every 2 days. Culture media were analyzed for secreted viral antigens (HBsAg, HBeAg) and HBV DNA.

In the case of `O=C(NCc1cccc(F)c1)c1cccc2nc(-c3c(NC[C@@H](O)c4ccccc4)cc[nH]c3=O)[nH]c12` [Example 1, 2-[4-((S)-2-hydroxy-2-phenyl-ethylamino)-2-oxo-1,2-dihydro-pyridin-3-yl]-3H-benzoimidazole-4-carboxylic acid 3-fluoro-benzylamide], the “infection of the four major HBV genotypes” value (iCell hepatocytes treated with compound) is reported as “support robust infection of all four major HBV genotypes”, the “infection with patient-derived vs cell culture-derived (HepG2.2.15) HBV” value (iCell hepatocytes treated with compound, FIG. 8) is reported as “support infection of patient-derived, but not cell culture-derived, HBV” and the “cell susceptibility to HBV infection” value (iCell hepatocytes, FIG. 3) is reported as “cell susceptibility to HBV infection that occurred in a dose-dependent manner”. The “need for compound presence to maintain robust viral infection” value (pre-treated 6 d vs pre-treated and during infection (throughout)) was “Continuous presence of the compound of example 1 is required”.
